Reference: patent US20240383900A1, “SUBSTITUTED PYRAZOLO [1,5-A]PYRIMIDINE-7-AMINE COMPOUNDS AS CDK INHIBITORS AND THEIR THERAPEUTIC USE” (Carrick Therapeutics Limited, priority 2021, published 2024)
Where two headings read alike, the source gives them in different places.

Experiments:
Human CDK12 wt/CycK = Human CDK12 wt/CycK (Homo sapiens (Human), UniProt Q9NYV4); test: Radiometric protein kinase assay (33PanQinase Activity Assay), CDK12; type: biochemical; settings: for CDK7/CDK12: ratio of CDK7 IC50 to CDK12 IC50, greater than 1 indicates selectivity for CDK12
Description: (§1) A radiometric protein kinase assay (^33PanQinase® Activity Assay) was used for measuring the kinase activity of the two protein kinases (CDK12/CDK7). All kinase assays were performed in 96-well FlashPlates™ from PerkinElmer (Boston, MA, USA) in a 50 μL reaction volume.
(§2) The reaction cocktail was pipetted in four steps in the following order: • 20 μL of assay buffer (standard buffer) • 5 μL of ATP solution (in H2O) • 5 μL of test compound (in 10% DMSO) • 10 μL of substrate/10 μL of enzyme solution (premixed)
(§3) The reaction mixture was incubated at 30° C. for 60 min and then stopped by the addition of 2% (v/v) H3PO4. Plates were aspirated and washed two times with 200 μL 0.9% (w/v) NaCl. Incorporation of ^33Pi was determined with a microplate scintillation count (Microbeta, Wallac).
The fitting method used was a least-squares fit.

Human CDK7/CycH/MAT1 = Human CDK7/CycH/MAT1 (Homo sapiens (Human), UniProt P50613); test: Radiometric protein kinase assay (33PanQinase Activity Assay), CDK7; type: biochemical; settings: ATP 3 μM
Description: Additionally for the CDK7 assay: • Human CDK7/CycH/MAT1 (ProQinase, 0366-0360-4—Lot 2). • RBER-CHKtide (ProQinase, 0581-0000-5—Lot 106).
as §1, §2
For the CDK7 assay, a reaction mixture (50 μL) containing the following components was prepared: • 70 mM HEPES-NaOH (pH 7.5); • sodium orthovanadate (3 μM); • PEG-20000 (50 μg/mL); • DTT (1.2 mM); • MgCl2 (3 mM); • MnCl2 (3 mM); • purified human CDK7/CycH/MAT1 (3.3 nM—Lot 02); • RBER-CHKtide substrate (40 μg/mL—Lot 106); • ATP (3 μM); • [γ-33P]-ATP (approx. 8×10^5 cpm per well); and • test compound at the appropriate concentration such that the final concentration of DMSO was […].
as §3
The residual activities for each concentration and the compound IC50 values were calculated using Quattro Workflow V3.1.1 (Quattro Research GmbH, Munich, Germany). The fitting model for the IC50 determinations was “Sigmoidal response (variable slope)” with parameters “top” fixed at 100% and “bottom” at 0%. The fitting method used was a least-squares fit.

A673 cells = test: Cytotoxicity in A673 cells (Cell Titer Glo viability); type: cell-based; settings: for Ratio of Biochemical Potency:Cellular Potency: CDK12 IC50 / A673 IC50; for IC50: Homo sapiens
Description: Cells were plated in 96-well plates at a density of […] viable cells per well in 200 μL fully supplemented growth medium (DMEM+10% heat inactivated foetal bovine serum) and incubated for 24 hours in standard tissue culture conditions. Compounds, including MLN4924, were solubilised in DMSO and then diluted in fully supplemented growth medium at 2× their final assay concentration such that the final DMSO concentration was 0.1%. Growth medium in the assay plates was replaced with 50 μL of growth medium containing 2×MLN4924 (final assay concentration: 30 nM, where tested) or vehicle only and 50 μL of growth medium containing a 2× compound concentration series or vehicle only such that each compound was at 1× final assay concentration in 100 μL.
Cells were then incubated for 72 hours in standard tissue culture conditions before viability was assessed using 50 μL Cell Titer Glo reagent (Promega) per well and luminescence measured on an EnVision plate reader. Data were normalised to vehicle control (100%) and cells treated with 0.1% Triton x-100 for 1 hour before viability measurement (0%; full cell kill). […] Viability curves generated in the presence of MLN4924 were normalised and fixed to controls treated with MLN4924.

[1] = ATP 0.3 μM, read-out: CDK12 IC50
[2] = read-out: CKD12 Biochemical Potency IC50
[3] = A673, read-out: Cellular Potency IC50 (nM) (in A673 cells)
[4] = A673 cells, 72 hours, read-out: A673 IC50

Human CDK12 wt/CycK, sequence (Q9NYV4 whole entry): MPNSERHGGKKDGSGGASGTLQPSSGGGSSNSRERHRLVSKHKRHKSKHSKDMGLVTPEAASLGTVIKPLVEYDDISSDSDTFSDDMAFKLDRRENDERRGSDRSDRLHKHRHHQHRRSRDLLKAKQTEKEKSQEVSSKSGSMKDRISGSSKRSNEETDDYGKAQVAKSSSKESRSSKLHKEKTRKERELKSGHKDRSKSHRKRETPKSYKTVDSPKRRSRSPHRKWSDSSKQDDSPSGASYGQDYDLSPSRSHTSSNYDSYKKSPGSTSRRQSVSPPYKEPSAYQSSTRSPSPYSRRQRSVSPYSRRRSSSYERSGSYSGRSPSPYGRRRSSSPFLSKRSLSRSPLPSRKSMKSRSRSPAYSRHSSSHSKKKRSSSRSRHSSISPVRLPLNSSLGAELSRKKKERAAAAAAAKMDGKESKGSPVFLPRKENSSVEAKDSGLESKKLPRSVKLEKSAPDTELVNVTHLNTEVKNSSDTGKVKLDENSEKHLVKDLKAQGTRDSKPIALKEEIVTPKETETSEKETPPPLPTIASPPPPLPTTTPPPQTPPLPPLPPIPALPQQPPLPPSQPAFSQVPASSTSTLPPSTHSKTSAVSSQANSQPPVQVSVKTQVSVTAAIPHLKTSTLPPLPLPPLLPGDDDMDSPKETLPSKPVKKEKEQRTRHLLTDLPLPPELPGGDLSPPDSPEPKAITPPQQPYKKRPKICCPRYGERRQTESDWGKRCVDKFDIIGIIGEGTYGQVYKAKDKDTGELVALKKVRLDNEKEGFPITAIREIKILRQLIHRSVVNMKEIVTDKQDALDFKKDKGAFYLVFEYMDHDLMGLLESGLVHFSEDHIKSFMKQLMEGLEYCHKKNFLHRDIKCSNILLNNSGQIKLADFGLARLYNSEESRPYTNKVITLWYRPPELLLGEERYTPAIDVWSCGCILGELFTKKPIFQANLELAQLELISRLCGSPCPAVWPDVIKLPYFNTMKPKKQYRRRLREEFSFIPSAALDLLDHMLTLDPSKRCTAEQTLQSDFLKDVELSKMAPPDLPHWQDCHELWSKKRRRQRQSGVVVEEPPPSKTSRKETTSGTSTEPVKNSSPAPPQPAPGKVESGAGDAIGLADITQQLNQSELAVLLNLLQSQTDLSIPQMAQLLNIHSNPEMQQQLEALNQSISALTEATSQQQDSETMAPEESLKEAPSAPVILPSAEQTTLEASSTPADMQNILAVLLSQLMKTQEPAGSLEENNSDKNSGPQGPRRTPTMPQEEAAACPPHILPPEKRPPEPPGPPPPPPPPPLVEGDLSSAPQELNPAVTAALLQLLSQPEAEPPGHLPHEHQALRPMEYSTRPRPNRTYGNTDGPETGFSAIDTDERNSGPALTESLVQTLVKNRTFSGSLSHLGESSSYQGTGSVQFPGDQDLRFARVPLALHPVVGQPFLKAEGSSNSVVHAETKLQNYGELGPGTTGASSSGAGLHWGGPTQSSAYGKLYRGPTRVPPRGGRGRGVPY
Human CDK12 wt/CycK, sequence (O75909 whole entry partner): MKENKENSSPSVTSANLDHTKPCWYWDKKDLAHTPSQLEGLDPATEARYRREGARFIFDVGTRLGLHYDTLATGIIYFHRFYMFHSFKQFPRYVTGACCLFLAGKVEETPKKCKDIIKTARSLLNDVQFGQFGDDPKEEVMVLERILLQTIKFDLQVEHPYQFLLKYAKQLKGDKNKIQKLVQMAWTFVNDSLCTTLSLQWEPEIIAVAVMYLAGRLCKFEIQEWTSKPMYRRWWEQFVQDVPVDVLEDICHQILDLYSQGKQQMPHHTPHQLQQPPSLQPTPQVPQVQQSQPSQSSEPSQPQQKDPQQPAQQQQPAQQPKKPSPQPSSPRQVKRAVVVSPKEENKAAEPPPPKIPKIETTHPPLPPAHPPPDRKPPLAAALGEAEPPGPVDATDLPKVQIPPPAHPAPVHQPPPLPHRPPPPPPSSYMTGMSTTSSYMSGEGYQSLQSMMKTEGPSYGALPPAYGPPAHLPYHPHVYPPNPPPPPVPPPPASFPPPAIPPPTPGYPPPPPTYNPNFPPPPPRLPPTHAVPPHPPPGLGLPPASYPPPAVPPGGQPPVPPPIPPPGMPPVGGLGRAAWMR
Human CDK7/CycH/MAT1, sequence (P50613 whole entry): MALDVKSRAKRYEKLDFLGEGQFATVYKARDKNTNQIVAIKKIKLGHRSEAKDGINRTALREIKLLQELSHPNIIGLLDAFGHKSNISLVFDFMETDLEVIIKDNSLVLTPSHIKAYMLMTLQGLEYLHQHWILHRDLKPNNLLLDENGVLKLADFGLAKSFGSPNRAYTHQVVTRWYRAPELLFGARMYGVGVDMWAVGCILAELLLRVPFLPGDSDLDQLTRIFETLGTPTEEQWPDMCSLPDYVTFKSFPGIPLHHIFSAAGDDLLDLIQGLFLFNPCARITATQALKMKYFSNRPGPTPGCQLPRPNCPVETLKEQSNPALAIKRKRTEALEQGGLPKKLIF
Human CDK7/CycH/MAT1, sequence (P51946 whole entry partner): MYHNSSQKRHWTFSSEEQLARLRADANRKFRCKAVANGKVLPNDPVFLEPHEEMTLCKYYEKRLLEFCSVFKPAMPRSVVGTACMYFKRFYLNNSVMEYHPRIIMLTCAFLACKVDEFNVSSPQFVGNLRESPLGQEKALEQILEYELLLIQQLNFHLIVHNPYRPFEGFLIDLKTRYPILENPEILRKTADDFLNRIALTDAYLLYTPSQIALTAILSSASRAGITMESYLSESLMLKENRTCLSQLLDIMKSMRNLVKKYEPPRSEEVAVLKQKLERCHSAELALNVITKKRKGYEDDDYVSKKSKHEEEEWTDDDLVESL
Human CDK7/CycH/MAT1, sequence (P51948 whole entry partner): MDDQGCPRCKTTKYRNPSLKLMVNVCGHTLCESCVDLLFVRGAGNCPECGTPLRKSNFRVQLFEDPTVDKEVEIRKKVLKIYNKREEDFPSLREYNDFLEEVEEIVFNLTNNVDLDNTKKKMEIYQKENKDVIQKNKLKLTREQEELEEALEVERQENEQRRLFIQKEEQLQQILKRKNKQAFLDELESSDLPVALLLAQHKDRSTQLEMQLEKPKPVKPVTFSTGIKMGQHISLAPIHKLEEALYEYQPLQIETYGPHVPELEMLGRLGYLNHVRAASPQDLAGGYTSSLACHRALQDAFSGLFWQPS

| IC50 (Human CDK12 wt/CycK; [1]) [nM] | CDK7/CDK12 (Human CDK12 wt/CycK) | IC50 (Human CDK12 wt/CycK; [2]) [nM] | IC50 (Human CDK7/CycH/MAT1) [nM] | SMILES | Ratio of Biochemical Potency:Cellular Potency (A673 cells) | IC50 (A673 cells; [3]) [nM] | IC50 (A673 cells; [4]) [nM] |
| --- | --- | --- | --- | --- | --- | --- | --- |
| 664 | 16.9 | 664 | 11200 | O=C1CC(CNc2cc(NCc3ccc(-c4ccccn4)cc3)n3ncc(C4CC4)c3n2)CCN1 (centres unmarked) [PPA-051] | 22.98 | 28.9 | 28.9 |
| 236 | 0.5 | 236 | 113 | Cc1nccn1-c1ccc(CNc2cc(NC[C@H]3CCNC[C@@H]3O)nc3c(C4CC4)cnn23)cc1 [PPA-023] | <0.47 | > 500 | > 500 |
| 52 | 2.2 | 52 | 113 | O[C@H]1CNCC[C@@H]1CNc1cc(NCc2ccc(-c3cscn3)cc2)n2ncc(C3CC3)c2n1 [PPA-035] | 28.89 | 1.8 | 1.8 |
| 6 | 2.8 | 6 | 17 | Cn1cc(-c2ccccn2)nc1CNc1cc(NC[C@H]2CCNC[C@@H]2O)nc2c(C3CC3)cnn12 [PPA-024] | 0.06 | 96.4 | 96.4 |
| 188 | 0.9 | 188 | 165 | Cc1cccnc1-c1ccc(CNc2cc(NC[C@H]3CCNC[C@@H]3O)nc3c(C(C)C)cnn23)cc1 [PPA-012] | 13.33 | 14.1 | 14.1 |
| 42 | 7.7 | 42 | 323 | CCc1cnn2c(NCc3ccc(-c4ccccn4)cc3F)cc(NC[C@H]3CCNC[C@@H]3O)nc12 [PPA-068] | 28.00 | 1.5 | 1.5 |
| 52 | 3.0 | 52 | 154 | CC(C)c1cnn2c(NCc3ccc(-c4ccncn4)cc3)cc(NC[C@H]3CCNC[C@@H]3O)nc12 [PPA-008] | 1.63 | 32 | 32 |
| 3780 | >8 | 3780 | > 30000 | CC(=O)N1CCC(CNc2cc(NCc3ccc(-c4ccccn4)cc3)n3ncc(C4CC4)c3n2)CC1 [PPA-046] | 12.38 | 305 | 305 |
| 60 | 2.6 | 60 | 155 | O[C@H]1CNCC[C@@H]1CNc1cc(NCc2ccc(-c3ncco3)cc2)n2ncc(C3CC3)c2n1 [PPA-031] | 46.15 | 1.3 | 1.3 |
| 1050 | 6.3 | 1050 | 6650 | c1ccc(-c2ccc(CNc3cc(N4CCOCC4)nc4c(C5CC5)cnn34)cc2)nc1 [PPA-033] | 19.81 | 53 | 53 |
| 49 | 12.0 | 49 | 589 | O[C@H]1CNCC[C@@H]1CNc1cc(NCc2ccc(-c3nccs3)cc2F)n2ncc(C3CC3)c2n1 [PPA-054] | 18.15 | 2.7 | 2.7 |
| 423 | 24.8 | 423 | 10500 | OC1CCN(c2cc(NCc3ccc(-c4ccccn4)cc3)n3ncc(C4CC4)c3n2)CC1 [PPA-050] | 9.44 | 44.8 | 44.8 |
| 593 | 10.5 | 593 | 6240 | N[C@H]1CC(=O)N(c2cc(NCc3ccc(-c4ccccn4)cc3)n3ncc(C4CC4)c3n2)C1 [PPA-078] | 19.64 | 30.2 | 30.2 |
| 82 | 15.7 | 82 | 1290 | c1ccc(-c2ccc(CNc3cc(NC4CCNCC4)nc4c(C5CC5)cnn34)cc2)nc1 [PPA-048] | 12.06 | 6.8 | 6.8 |
| 1120 | 12.5 | 1120 | 14000 | c1ccc(-c2ccc(CNc3cc(N4CC5(CNC5)C4)nc4c(C5CC5)cnn34)cc2)nc1 [PPA-084] | 15.28 | 73.3 | 73.3 |
| 33 | 16.0 | 33 | 529 | F[C@@H]1CNC[C@H]1Oc1cc(NCc2ccc(-c3ccccn3)cc2)n2ncc(C3CC3)c2n1 [PPA-073] | 1.72 | 19.2 | 19.2 |
| 41 | 33.9 | 41 | 1390 | c1ccc(-c2ccc(CNc3cc(N4CCNC5(CC5)C4)nc4c(C5CC5)cnn34)cc2)nc1 [PPA-077] | 5.47 | 7.5 | 7.5 |
| 218 | 1.7 | 218 | 370 | COc1cc(-c2ccccn2)ccc1CNc1cc(NC[C@H]2CCNC[C@@H]2O)nc2c(C3CC3)cnn12 [PPA-030] | 35.16 | 6.2 | 6.2 |
| 34 | 2.3 | 34 | 79 | CC(C)c1cnn2c(NCc3ccc(-c4ccncc4)cc3)cc(NC[C@H]3CCNC[C@@H]3O)nc12 [PPA-002, (3R,4R)-4-(((3-isopropyl-7-((4-(pyridin-4-yl)benzyl)amino)pyrazolo[1,5-a]pyrimidin-5-yl)amino)methyl)piperidin-3-ol] | 0.27 | 127 | 127 |
| 45 | 3.6 | 45 | 164 | O[C@H]1CNCC[C@@H]1CNc1cc(NCc2ccc(-c3ccccc3)nc2)n2ncc(C3CC3)c2n1 [PPA-026] | 3.57 | 12.6 | 12.6 |
| 6630 | >4.5 | 6630 | > 30000 | OC1CN(c2cc(NCc3ccc(-c4ccccn4)cc3)n3ncc(C4CC4)c3n2)C1 [PPA-052] | <66.3 | > 100 | > 100 |
| 89 | 1.3 | 89 | 114 | COc1cccnc1-c1ccc(CNc2cc(NC[C@H]3CCNC[C@@H]3O)nc3c(C(C)C)cnn23)cc1 [PPA-013] | 40.45 | 2.2 | 2.2 |
| 63 | 2.8 | 63 | 179 | O[C@H]1CNCC[C@@H]1CNc1cc(NCc2ccc(-c3ncccn3)cc2)n2ncc(C3CC3)c2n1 [PPA-029] | 45.00 | 1.4 | 1.4 |
